Key:
[1] = test system: dextran sodium sulfate (DSS)-induced acute colitis; assay: DSS-induced acute colitis mouse model, exemplary compounds (Example 7); format: in vivo; settings: mice, oral gavage twice daily for 9 days, indirubin molar equivalent of 15 mg/kg
Method: Eight week old female C57 BL/6J mice, around 20 g body weight purchased from Charles River Laboratories were bred in specific pathogen free IVC cages (4 mice in each cage) in a temperature controlled (20±2° C.) room with a 12 hour light-dark cycle. Chow pellets and tap water were available ad libitum. All experimental protocols were approved by the Institutional Animal Care and Use Committee. The mice were acclimated at the animal facility for at least of three days before the experiments. To generate dextran sodium sulfate (DSS)-induced acute colitis, the mice were induced with 3% DSS (molecular weight 36,000-50,000; […] DSS solution was freshly prepared and changed daily. These mice were euthanized on day 8 (9th day of the experiment). Body weight and disease activity index (DAI) soring were recorded daily to assess the colitis. DAI score was the sum of the weight loss score, stool score and bleeding subscores. A blinded scoring system was employed to assess the colitis. The DAI scorer blinded to the group information and animal ID was responsible for the stool consistency and bleeding evaluations. DAI scoring standards will be followed as below. A study was conducted as in set forth in Example 6. […] Mice in the vehicle group were given only 200 μL distilled water by gavage.

[2] = Indirubin levels in plasma, colon and lung of colitis mice, LC-MS/MS (Example 8); format: in vivo; settings: six hours after the last oral dose, indirubin molar equivalent of 15 mg/kg twice daily
Method: Five animals from each group in Example 7 were euthanized six hours after the last oral dose. At this time plasma, lung and colon was harvested. Colon was washed three times in cold phosphate buffered saline (PBS) to remove colon contents.
Indirubin was detected utilizing LC-MS/MS.
To prepare samples, an aliquot of 20 μL unknown sample, calibration standard, quality control, single blank and double blank samples were added to the 96-well plate. Samples (except the double blank) for plasma were quenched with 100 μL internal standard respectively (double blank sample was quenched with 100 μL acetonitrile (ACN)), samples (except the double blank) for liver, lung and colon were quenched with 80 μL internal standard respectively (double blank sample was quenched with 80 μL ACN), and then the mixture was vortex-mixed for 5 minutes at 800 rpm and centrifuged for 15 minutes at 3220 g (4000 rpm), at 4° C. 50 μL supernatant was transfer to another clean 96-well plate and the supernatant were directly injected for LC-MS/MS analysis.

[3] = Indirubin solubility in biorelevant media (FaSSIF, FaSSGF), HPLC; format: physicochemical; settings: for Solubility in the simulated fluids: FaSSGF and FaSSIF
Method: Biorelevant media was prepared as per the supplier's (Biorelevant) method, using FaSSIF/FeSSIF/FaSSGF powders. In brief, FaSSGF media was prepared using 0.06 g/L FaSSIF/FeSSIF/FaSSGF powder in 2 g/L NaCl solution, pH adjusted to 1.6 with 1N HCl. FaSSIF media was prepared with 2.24 g/L FaSSIF/FeSSIF/FaSSGF powder in sodium phosphate buffer, pH adjusted to 6.5 with 1N NaOH. (Sodium phosphate buffer prepared as a 0.42 g/L NaOH, 3.95 g/L NaH2PO4·H2O, 6.19 g/L NaCl solution).
Solubility assessments were performed as follows. An individual flask was prepared for each media and time point. Flasks were placed in a shaking water bath kept at 37° C. Flasks were removed from the bath at specified time points of 1 hour, 4 hours and 24 hours, allowed to cool, and an aliquot taken and filtered.

AhR = molecular target: T1, AhR (Rattus norvegicus, UniProt P41738); assay: AhR/arnt-luciferase reporter assay in rat H4IIE cells
T1 sequence (P41738 10-853): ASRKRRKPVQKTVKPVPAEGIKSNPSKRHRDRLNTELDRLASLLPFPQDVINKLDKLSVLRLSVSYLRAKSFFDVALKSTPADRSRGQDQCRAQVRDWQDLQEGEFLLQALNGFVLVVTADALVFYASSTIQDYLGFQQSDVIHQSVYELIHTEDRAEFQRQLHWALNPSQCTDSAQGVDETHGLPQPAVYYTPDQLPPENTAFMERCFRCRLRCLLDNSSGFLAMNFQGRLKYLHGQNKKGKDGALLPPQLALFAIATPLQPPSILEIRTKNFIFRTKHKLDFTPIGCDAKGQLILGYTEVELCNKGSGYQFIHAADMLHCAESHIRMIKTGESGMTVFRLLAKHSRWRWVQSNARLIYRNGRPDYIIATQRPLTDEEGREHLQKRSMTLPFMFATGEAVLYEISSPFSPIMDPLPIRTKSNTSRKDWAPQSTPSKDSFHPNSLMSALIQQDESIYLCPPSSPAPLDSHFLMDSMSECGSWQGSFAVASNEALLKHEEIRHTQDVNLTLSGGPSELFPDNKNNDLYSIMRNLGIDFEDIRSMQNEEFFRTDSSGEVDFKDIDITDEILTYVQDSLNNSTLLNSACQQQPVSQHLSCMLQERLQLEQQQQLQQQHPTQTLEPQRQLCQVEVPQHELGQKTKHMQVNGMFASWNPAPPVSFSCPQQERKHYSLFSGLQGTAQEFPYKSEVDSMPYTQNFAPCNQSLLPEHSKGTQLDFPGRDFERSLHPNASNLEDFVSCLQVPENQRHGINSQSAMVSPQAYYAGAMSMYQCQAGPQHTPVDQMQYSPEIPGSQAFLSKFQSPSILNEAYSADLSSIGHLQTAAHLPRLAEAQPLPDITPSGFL
Method: TCDD and MeBio were included in the study as positive controls. These were added into cell culture media containing charcoal-stripped fetal bovine serum to produce a 2× stock and then added to the reporter cells. The reporter cells were human Huh7 cells or Rat H4IIE cell lines with the native AhR and an AhR/arnt-Luciferase reporter vector. The final concentration of DM50 was 0.1%. Cells were incubated for 22 hours at 37° C. prior to addition of the luciferase detection reagent and measurement of activity in relative luminescence units.

[4] = Stability of indirubin prodrugs in simulated fluids (FaSSIF, FaSSGF), 24 h at 37° C., UPLC-MS; format: physicochemical
Method: (§1) 10.41 g fasted state simulated intestinal fluid (FaSSIF) buffer concentrate was dissolved in 240.3 g deionized water and 560 mg FaSSIF powder added. The mixture was stirred until complete dissolution observed. The test compound (approx. 1-3 mg) was placed in 5.00 mL of FaSSIF solution. Samples of the solution with the test compound were taken after 24 hours in at 37° C. (oven-controlled temperature).
as §1, with “36.78” for “10.41”, “gastric” for “intestinal”, “(FaSSGF)” for “(FaSSIF)”, “961.9” for “240.3”, “60” for “560”, “FaSSGF” for “FaSSIF”
UPLC-MS analysis of the samples taken at 24 hours was carried out on a Waters Acquity UPLC system consisting of an Acquity I-Class Sample Manager-FL, Acquity I-Class Binary Solvent Manager and an Acquity UPLC Column Manager. UV detection was afforded using an Acquity UPLC PDA detector (scanning from 210 to 400 nm), whilst mass detection was achieved using an Acquity QDa detector (mass scanning from 100-1250 Da; positive and negative modes simultaneously), and ELS detection was achieved using an Acquity UPLC ELS Detector. A Waters Acquity UPLC BEH C18 column (2.1 Å˜50 mm, […]) was used to separate the analytes. Samples were prepared by dissolution (with or without sonication) into 1 mL of 50% (v/v) MeCN in water. The resulting solutions were then filtered through a […] syringe filter before submitting for analysis. All of the solvents, including formic acid and 36% ammonia solution, were purchased as the HPLC grade.

Row | SMILES | Fraction (percent) of indirubin ([4]; FaSSGF 37° C. 24 h) | Fraction (percent) of starting material (SM) ([4]; FaSSGF 37° C. 24 h) | Fraction (percent) of indirubin ([4]; FaSSIF 37° C. 24 h) | Fraction (percent) of starting material (SM) ([4]; FaSSIF 37° C. 24 h) | further results
1 | O=C1/C(=C2/C(=O)N(CN3CCCC3)c3ccccc32)Nc2ccccc21 [Compound 41] | – | – | – | – | Efficacy (percent of initial body weight, DAI score) [1]: more effective than an equimolar amount of indirubin
2 | O=C1Nc2ccccc2/C1=C1/Nc2ccccc2C1=O [synthetic indirubin] | – | – | – | – | Colon length versus vehicle [1]: vehicle only have a shorter colon than those treated with synthetic indirubin; Mean Indirubin Level, Colon [2]: 2.43 ng/g; Mean Indirubin Level, Lung [2]: 2.12 ng/g; Mean Indirubin Level, Plasma [2]: 0.05 ng/mL; % indirubin recovered in solution ([3]; FaSSIF 24 hr, 37° C., 5 μg/mL indirubin or molar equivalent): 0.1%
3 | O=C1Nc2ccccc2/C1=C1/Nc2ccccc2C1=O [indirubin, reference compound] | – | – | – | – | EC50 (AhR): ~654 nM
4 | CCN(CC)CN1C(=O)/C(=C2\Nc3ccccc3C2=O)c2ccccc21 [Compound 9] | – | – | – | – | Solubility in the simulated fluids [3]: soluble in the simulated fluids
5 | CN1CCN(CN2C(=O)/C(=C3\Nc4ccccc4C3=O)c3ccccc32)CC1 [Compound 10] | – | – | – | – | Solubility in the simulated fluids [3]: soluble in the simulated fluids
6 | CN1CCC(NC(=O)N2C(=O)/C(=C3\Nc4ccccc4C3=O)c3ccccc32)CC1=O (stereo not shown) | 0% | 100% | 0% | 100% | –
7 | CCOC(=O)CCC(=O)N1C(=O)/C(=C2\Nc3ccccc3C2=O)c2ccccc21 | 0% | 100% | 0% | 100% | –
8 | O=C1/C(=C2/C(=O)N(COc3ccccc3)c3ccccc32)Nc2ccccc21 | 0% | 100% | 0% | 100% | –
9 | CS(=O)(=O)NCCNC(=O)N1C(=O)/C(=C2\Nc3ccccc3C2=O)c2ccccc21 | 0% | 100% | 0% | 100% | –
10 | Cl.NCCCNC(=O)N1C(=O)/C(=C2\Nc3ccccc3C2=O)c2ccccc21 | 7% | 86% | 0% | 100% | –
11 | Cl.NCCNC(=O)N1C(=O)/C(=C2\Nc3ccccc3C2=O)c2ccccc21 | 0% | 100% | 0% | 100% | –

Now from value to compound, other results behind:

Row | Fraction (percent) of indirubin ([4]; FaSSGF 37° C. 24 h) | Fraction (percent) of starting material (SM) ([4]; FaSSGF 37° C. 24 h) | Fraction (percent) of indirubin ([4]; FaSSIF 37° C. 24 h) | Fraction (percent) of starting material (SM) ([4]; FaSSIF 37° C. 24 h) | SMILES | further results
12 | 100% | 0% | 100% | 0% | CCN(CC)CN1C(=O)/C(=C2\Nc3ccccc3C2=O)c2ccccc21 [drawing 221] | –
13 | 0% | 100% | 0% | 100% | CCOC(=O)N1C(=O)/C(=C2\Nc3ccccc3C2=O)c2ccccc21 | –
14 | 3% | 94% | 0% | 100% | CC(=O)OCN1C(=O)/C(=C2\Nc3ccccc3C2=O)c2ccccc21 | –
15 | – | – | 19% | 50% | CN1CCN(CN2C(=O)/C(=C3\Nc4ccccc4C3=O)c3ccccc32)CC1 [drawing 222] | –
16 | 0% | 100% | 0% | 100% | CN(C)CCNC(=O)N1C(=O)/C(=C2\Nc3ccccc3C2=O)c2ccccc21 | –
17 | 0% | 100% | 1% | 94% | CN(C)CCCNC(=O)N1C(=O)/C(=C2\Nc3ccccc3C2=O)c2ccccc21 | –
